One series deals with esterases and amidases. Put plainly: Selectivity: inhibition of a series of esterases and amidases. The settings on record: selectivity panel. It is filed as biochemical.
Another series deals with T1, human microsomal EH (Homo sapiens, UniProt P07099).
T1 sequence (P07099 1-455): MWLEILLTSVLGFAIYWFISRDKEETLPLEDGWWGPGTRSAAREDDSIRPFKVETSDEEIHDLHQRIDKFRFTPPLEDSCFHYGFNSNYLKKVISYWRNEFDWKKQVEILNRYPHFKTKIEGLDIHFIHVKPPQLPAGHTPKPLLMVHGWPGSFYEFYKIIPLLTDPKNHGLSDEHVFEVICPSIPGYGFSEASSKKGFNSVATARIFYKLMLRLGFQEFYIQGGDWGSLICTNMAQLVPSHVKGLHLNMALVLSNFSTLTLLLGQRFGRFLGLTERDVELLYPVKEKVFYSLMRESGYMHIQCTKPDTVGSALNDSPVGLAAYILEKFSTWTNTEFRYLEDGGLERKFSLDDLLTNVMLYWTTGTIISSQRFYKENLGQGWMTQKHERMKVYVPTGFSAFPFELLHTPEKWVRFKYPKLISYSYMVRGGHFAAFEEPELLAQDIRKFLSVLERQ
Put plainly: Selectivity: inhibition of microsomal EH. Type of series: biochemical. The settings on record: selectivity panel.

The target in a further series is T2, human sEH (Homo sapiens, UniProt P34913).
T2 sequence (P34913 1-555): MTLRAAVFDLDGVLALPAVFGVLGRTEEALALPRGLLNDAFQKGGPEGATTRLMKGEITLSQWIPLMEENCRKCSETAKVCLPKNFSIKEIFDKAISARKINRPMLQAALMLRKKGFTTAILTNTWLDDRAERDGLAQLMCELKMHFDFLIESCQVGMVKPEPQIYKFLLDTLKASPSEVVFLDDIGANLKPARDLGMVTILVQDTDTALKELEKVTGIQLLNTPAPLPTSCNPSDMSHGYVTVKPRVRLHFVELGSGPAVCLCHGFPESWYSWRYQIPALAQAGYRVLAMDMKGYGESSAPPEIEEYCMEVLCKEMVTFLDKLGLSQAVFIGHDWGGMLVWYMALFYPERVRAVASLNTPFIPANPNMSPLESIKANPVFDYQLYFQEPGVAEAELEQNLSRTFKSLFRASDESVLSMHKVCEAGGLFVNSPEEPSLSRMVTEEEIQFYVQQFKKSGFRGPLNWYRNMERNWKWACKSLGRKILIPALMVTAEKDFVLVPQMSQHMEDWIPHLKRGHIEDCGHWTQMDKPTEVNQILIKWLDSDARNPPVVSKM
Briefly: Reversibility of inhibition: incubation with inhibitor, then dialysis. Type of series: biochemical. The settings on record: 20 nM human sEH incubated with 10 μM inhibitor for 15 min, then dialyzed.

The conditions of series [1]: human, cited from earlier work.
In series [2] the test system is human alkaline phosphatase. Briefly: Selectivity: inhibition of alkaline phosphatase. Type of series: biochemical. The settings on record: selectivity panel.
The target of the next series is T3, sEH-phosphatase activity (Homo sapiens, UniProt P34913).
T3 sequence (P34913 1-555): T2 sequence (P34913 1-555)
Briefly: Selectivity: inhibition of sEH-phosphatase activity. Type of series: biochemical. To be noted: selectivity panel.

Each structure is given as a SMILES string.

`C[C@]12CC[C@@H]3c4ccc(O)cc4C[C@@H](CCCCCCCCC[S+]([O-])CCCC(F)(F)C(F)(F)F)[C@H]3[C@@H]1CC[C@@H]2O` (stereo partly shown) [fulvestrant]: the “Inhibition of a series of esterases and amidases” value in the series on esterases and amidases is on record as “only inhibit the sEH”. Besides, the “Inhibition of human microsomal EH” value at human microsomal EH is “only inhibit the sEH”. Moreover, the “sEH activity recovered after dialysis” value at human sEH is given as “more than 80%”. The Stability in humans entry in series [1] is reported as “very stable”. The Blood concentration entry in series [1] (for several weeks following intramuscular treatment) was “around 10 nM”. Further, the “Inhibition of human alkaline phosphatase” value in series [2] is listed as “only inhibit the sEH”. Moreover, the “Inhibition of sEH-phosphatase activity” value at sEH-phosphatase activity was “only inhibit the sEH”.

Source of the values: article PMC3703951 (Bioorganic & medicinal chemistry letters, 2013).
